Reference: patent US20230265151A1, “GIP/GLP1 CO-AGONIST COMPOUNDS” (priority 2020, published 2023)
Where two headings read alike, the source gives them in different places. *1 amine or outer side, *2 acyl side, *3 side chain or, on linkers, in order; H or OH if unused. Where a SMILES comes first, the peptide text is derived from it. Side-chain parts run from the residue outwards. [ ]: non-standard residue; d: D form. The star is where a group is joined. αMePhe(2-F) = C[C@](N)(Cc1ccccc1F)C(=O)O; γGlu = O=C(O)[C@H](CCC(=O)[*:2])N[*:1]; C14 diacid = O=C(O)CCCCCCCCCCCCC(=O)*; εLys = N[C@@H](CCCCN[*:1])C(=O)[*:2]; αMeY = C[C@](N)(Cc1ccc(O)cc1)C(=O)O; 4Pal = N[C@@H](Cc1ccncc1)C(=O)O; αMeL = CC(C)C[C@](C)(N)C(=O)O; Orn = NCCC[C@H](N)C(=O)O; AEEA = NCCOCCOCC(=O)O; Aib = CC(C)(N)C(=O)O

Legend:
Format in all cases: cell-based
hGIPR = target: T1, hGIPR (Homo sapiens, UniProt P48546); experiment: Functional cAMP formation (HTRF) in HEK-293 clonal cells expressing hGIPR, 0.1% bovine casein, without or with 1.0% human serum albumin; conditions: for EC50: geometric mean, read-out: hGIPR EC50, nM (SEM, n); for Emax: read-out: hGIPR Emax, % ± SEM
T1 construct: expressed in transfected cells
T1 sequence (P48546 22-466): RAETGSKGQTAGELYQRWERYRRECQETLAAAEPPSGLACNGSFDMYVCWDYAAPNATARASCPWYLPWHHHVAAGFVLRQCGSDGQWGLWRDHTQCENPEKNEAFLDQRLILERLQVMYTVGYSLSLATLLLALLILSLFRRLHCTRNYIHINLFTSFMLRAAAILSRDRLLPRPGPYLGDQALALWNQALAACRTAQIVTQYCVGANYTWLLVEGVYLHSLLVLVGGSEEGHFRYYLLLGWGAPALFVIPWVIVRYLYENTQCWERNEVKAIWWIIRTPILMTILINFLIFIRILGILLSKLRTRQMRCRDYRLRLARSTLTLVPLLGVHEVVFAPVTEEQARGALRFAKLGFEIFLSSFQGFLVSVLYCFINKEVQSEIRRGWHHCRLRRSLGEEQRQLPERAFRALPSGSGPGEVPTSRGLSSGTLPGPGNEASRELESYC
How it was run: (§1)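 Readings of the HTRF 665/620 nm ratio, which falls as cAMP rises, were converted to nM cAMP using a standard curve after 30 min peptide exposure at 37° C.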

hGCGR = target: T2, hGCGR (Homo sapiens, UniProt P47871); experiment: Functional cAMP formation (HTRF) in HEK-293 clonal cells expressing hGCGR, 0.1% bovine casein, without or with 1.0% human serum albumin; conditions: geometric mean, read-out: hGCGR EC50, nM (SEM, n)
T2 construct: expressed in transfected cells
T2 sequence (P47871 26-477): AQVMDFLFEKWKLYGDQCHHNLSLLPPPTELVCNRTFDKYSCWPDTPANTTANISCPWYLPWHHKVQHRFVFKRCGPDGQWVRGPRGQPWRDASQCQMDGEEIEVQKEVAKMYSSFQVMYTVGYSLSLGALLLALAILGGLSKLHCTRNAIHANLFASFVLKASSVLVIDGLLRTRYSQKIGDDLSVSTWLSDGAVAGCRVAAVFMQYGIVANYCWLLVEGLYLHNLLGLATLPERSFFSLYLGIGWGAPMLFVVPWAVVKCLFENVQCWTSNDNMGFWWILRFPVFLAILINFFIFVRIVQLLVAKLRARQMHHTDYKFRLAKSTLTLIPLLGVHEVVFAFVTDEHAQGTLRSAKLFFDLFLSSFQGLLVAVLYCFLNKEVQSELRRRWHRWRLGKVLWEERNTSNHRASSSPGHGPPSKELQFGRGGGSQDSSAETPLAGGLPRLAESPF
How it was run: as §1

hGLP-1R = hGLP-1R (Homo sapiens, UniProt P43220); experiment: Functional cAMP formation (HTRF) in HEK-293 clonal cells expressing hGLP-1R, 0.1% bovine casein, without or with 1.0% human serum albumin; design: expressed in transfected cells; conditions: for EC50: geometric mean, read-out: hGLP-1R EC50, nM (SEM, n); for Emax: read-out: hGLP-1R Emax, % ± SEM
Chain of hGLP-1R (P43220 24-463): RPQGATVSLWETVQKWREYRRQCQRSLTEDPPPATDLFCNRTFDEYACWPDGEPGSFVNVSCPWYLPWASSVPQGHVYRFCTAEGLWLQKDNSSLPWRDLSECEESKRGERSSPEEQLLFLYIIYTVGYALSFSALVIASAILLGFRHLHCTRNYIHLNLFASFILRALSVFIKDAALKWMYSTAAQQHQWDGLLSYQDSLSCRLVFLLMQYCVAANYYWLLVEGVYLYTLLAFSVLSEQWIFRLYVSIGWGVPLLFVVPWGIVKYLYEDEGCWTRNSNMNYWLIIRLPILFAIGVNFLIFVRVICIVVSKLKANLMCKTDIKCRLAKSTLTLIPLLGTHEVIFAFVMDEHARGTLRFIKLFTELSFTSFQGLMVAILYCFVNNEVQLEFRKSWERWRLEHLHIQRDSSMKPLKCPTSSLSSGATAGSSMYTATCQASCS
How it was run: as §1

[1] = 0.1% bovine casein and 1.0% human serum albumin, 37° C.
[2] = HEK293, 0.1% bovine casein and 1.0% human serum albumin, 37° C., percent of maximal response to GIP(1-42)NH2
[3] = cAMP, incubated at 37° C., 0.1% bovine casein (no human serum albumin)
[4] = HEK293, 0.1% bovine casein and 1.0% human serum albumin, 37° C., percent of maximal response to GLP-1(7-36)NH2
[5] = HEK293, percent of maximal response to GIP(1-42)NH2, 37° C., 0.1% bovine casein, arithmetic mean
[6] = HEK293, percent of maximal response to GLP-1(7-36)NH2, 37° C., 0.1% bovine casein, arithmetic mean

In the case of `CC[C@H](C)[C@H](NC(=O)[C@H](CC(C)C)NC(=O)[C@](C)(Cc1ccc(O)cc1)NC(=O)[C@@H](CCC(=O)O)NC(=O)[C@@H](NC(=O)[C@H](Cc1ccccc1)NC(=O)[C@H](CCC(=O)O)NC(=O)C(C)(C)NC(=O)[C@H](CCC(N)=O)NC(=O)[C@H](C)NC(=O)[C@H](CCCCNC(=O)[C@@H](N)CCCCNC(=O)CC[C@H](NC(=O)CCCCCCCCCCCCC(=O)O)C(=O)O)NC(=O)[C@H](CCCN)NC(=O)[C@H](CC(=O)O)NC(=O)[C@H](CC(C)C)NC(=O)[C@](C)(CC(C)C)NC(=O)[C@@H](NC(=O)[C@H](CO)NC(=O)[C@H](Cc1ccncc1)NC(=O)[C@H](CC(=O)O)NC(=O)[C@H](CO)NC(=O)[C@@H](NC(=O)[C@](C)(Cc1ccccc1F)NC(=O)[C@@H](NC(=O)CNC(=O)[C@H](CCC(=O)O)NC(=O)C(C)(C)NC(=O)[C@@H](N)Cc1ccc(O)cc1)[C@@H](C)O)[C@@H](C)O)[C@@H](C)CC)[C@@H](C)CC)C(=O)N[C@@H](CCC(=O)O)C(=O)NCC(=O)NCC(=O)N[C@@H](CCCCNC(=O)[C@@H](N)CCCCNC(=O)CC[C@H](NC(=O)CCCCCCCCCCCCC(=O)O)C(=O)O)C(N)=O` [Example 186] (H-Y[Aib]EGT[αMePhe(2-F)]TSD[4Pal]SI[αMeL]LD[Orn]K([εLys-γGlu-C14 diacid])AQ[Aib]EFI[dE][αMeY]LIEGGK([εLys-γGlu-C14 diacid])-NH2; N-terminus assumed), the EC50 (hGIPR; [1]) is reported as 2.19 nM, the Emax (hGIPR; [2]) is reported as 85.6% and the EC50 (hGIPR; [3]) is reported as 0.0274 nM. For the same molecule, the EC50 (hGCGR; [1]) was > 9950 nM, the EC50 (hGCGR; [3]) was > 9950 nM and the EC50 (hGLP-1R; [1]) was 24.3 nM. The EC50 (hGLP-1R; [3]) was 0.371 nM.
In the case of `CC[C@H](C)[C@H](NC(=O)[C@H](CC(C)C)NC(=O)[C@](C)(Cc1ccc(O)cc1)NC(=O)[C@@H](CCC(=O)O)NC(=O)[C@@H](NC(=O)[C@H](Cc1ccccc1)NC(=O)[C@H](CCC(=O)O)NC(=O)C(C)(C)NC(=O)[C@H](CCC(N)=O)NC(=O)[C@H](C)NC(=O)[C@H](CCCCNC(=O)[C@@H](N)CCCCNC(=O)[C@@H](N)CCCCNC(=O)CC[C@H](NC(=O)CCCCCCCCCCCCC(=O)O)C(=O)O)NC(=O)[C@H](CCCN)NC(=O)[C@H](CC(=O)O)NC(=O)[C@H](CC(C)C)NC(=O)[C@](C)(CC(C)C)NC(=O)[C@@H](NC(=O)[C@H](CO)NC(=O)[C@H](Cc1ccncc1)NC(=O)[C@H](CC(=O)O)NC(=O)[C@H](CO)NC(=O)[C@@H](NC(=O)[C@](C)(Cc1ccccc1F)NC(=O)[C@@H](NC(=O)CNC(=O)[C@H](CCC(=O)O)NC(=O)C(C)(C)NC(=O)[C@@H](N)Cc1ccc(O)cc1)[C@@H](C)O)[C@@H](C)O)[C@@H](C)CC)[C@@H](C)CC)C(=O)N[C@@H](CCC(=O)O)C(=O)NCC(=O)NCC(=O)N[C@@H](CCCCNC(=O)[C@@H](N)CCCCNC(=O)[C@@H](N)CCCCNC(=O)CC[C@H](NC(=O)CCCCCCCCCCCCC(=O)O)C(=O)O)C(N)=O` [Example 187] (H-Y[Aib]EGT[αMePhe(2-F)]TSD[4Pal]SI[αMeL]LD[Orn]K([εLys-εLys-γGlu-C14 diacid])AQ[Aib]EFI[dE][αMeY]LIEGGK([εLys-εLys-γGlu-C14 diacid])-NH2; N-terminus assumed), the EC50 (hGIPR; [1]) is reported as 0.939 nM, the Emax (hGIPR; [2]) is reported as 79.3% and the EC50 (hGIPR; [3]) is reported as 0.026 nM. For the same molecule, the EC50 (hGCGR; [1]) was > 9950 nM, the EC50 (hGCGR; [3]) was > 9950 nM and the EC50 (hGLP-1R; [1]) was 18 nM. The Emax (hGLP-1R; [4]) was 109% and the EC50 (hGLP-1R; [3]) was 0.386 nM.
`CC[C@H](C)[C@H](NC(=O)[C@H](CC(C)C)NC(=O)[C@](C)(Cc1ccc(O)cc1)NC(=O)[C@H](CCCCNC(=O)COCCOCCNC(=O)COCCOCCNC(=O)CC[C@H](NC(=O)CCCCCCCCCCCCC(=O)O)C(=O)O)NC(=O)[C@@H](NC(=O)[C@H](Cc1ccccc1)NC(=O)[C@H](CCC(=O)O)NC(=O)C(C)(C)NC(=O)[C@H](CCC(N)=O)NC(=O)[C@H](C)NC(=O)[C@H](CCCCNC(=O)COCCOCCNC(=O)COCCOCCNC(=O)CC[C@H](NC(=O)CCCCCCCCCCCCC(=O)O)C(=O)O)NC(=O)[C@H](CCCN)NC(=O)[C@H](CC(=O)O)NC(=O)[C@H](CC(C)C)NC(=O)[C@](C)(CC(C)C)NC(=O)[C@@H](NC(=O)[C@H](CO)NC(=O)[C@H](Cc1ccncc1)NC(=O)[C@H](CC(=O)O)NC(=O)[C@H](CO)NC(=O)[C@@H](NC(=O)[C@](C)(Cc1ccccc1F)NC(=O)[C@@H](NC(=O)CNC(=O)[C@H](CCC(=O)O)NC(=O)C(C)(C)NC(=O)[C@@H](N)Cc1ccc(O)cc1)[C@@H](C)O)[C@@H](C)O)[C@@H](C)CC)[C@@H](C)CC)C(=O)N[C@@H](CCC(=O)O)C(=O)NCC(=O)NCC(N)=O` [Example 189] (H-Y[Aib]EGT[αMePhe(2-F)]TSD[4Pal]SI[αMeL]LD[Orn]K([AEEA-AEEA-γGlu-C14 diacid])AQ[Aib]EFIK([AEEA-AEEA-γGlu-C14 diacid])[αMeY]LIEGG-NH2; N-terminus assumed) was tested, and the Emax (hGIPR; [5]) was 96.6 ± 4.38%, the EC50 (hGIPR; [3]) was 0.0202 nM and the EC50 (hGCGR; [3]) was > 9950 nM. For the same molecule, the Emax (hGLP-1R; [6]) was 100 ± 3.68% and the EC50 (hGLP-1R; [3]) was 0.28 nM.
`CC[C@H](C)[C@H](NC(=O)[C@H](CC(C)C)NC(=O)[C@](C)(Cc1ccc(O)cc1)NC(=O)[C@H](CCCCNC(=O)COCCOCCNC(=O)COCCOCCNC(=O)CC[C@H](NC(=O)CCCCCCCCCCCCC(=O)O)C(=O)O)NC(=O)[C@@H](NC(=O)[C@H](Cc1ccccc1)NC(=O)[C@H](CCC(=O)O)NC(=O)C(C)(C)NC(=O)[C@H](CCC(N)=O)NC(=O)[C@H](C)NC(=O)[C@H](CCCCNC(=O)COCCOCCNC(=O)COCCOCCNC(=O)CC[C@H](NC(=O)CCCCCCCCCCCCC(=O)O)C(=O)O)NC(=O)[C@H](CCCN)NC(=O)[C@H](CC(=O)O)NC(=O)[C@H](CC(C)C)NC(=O)[C@](C)(CC(C)C)NC(=O)[C@@H](NC(=O)[C@H](CO)NC(=O)[C@H](Cc1ccncc1)NC(=O)[C@H](CC(=O)O)NC(=O)[C@H](CO)NC(=O)[C@@H](NC(=O)[C@](C)(Cc1ccccc1F)NC(=O)[C@@H](NC(=O)CNC(=O)[C@H](CCC(=O)O)NC(=O)C(C)(C)NC(=O)[C@@H](N)Cc1ccc(O)cc1)[C@@H](C)O)[C@@H](C)O)[C@@H](C)CC)[C@@H](C)CC)C(=O)N[C@@H](CCC(=O)O)C(=O)NCC(=O)N[C@@H](CCCN)C(N)=O` [Example 190] (H-Y[Aib]EGT[αMePhe(2-F)]TSD[4Pal]SI[αMeL]LD[Orn]K([AEEA-AEEA-γGlu-C14 diacid])AQ[Aib]EFIK([AEEA-AEEA-γGlu-C14 diacid])[αMeY]LIEG[Orn]-NH2; N-terminus assumed) was tested, and the EC50 (hGIPR; [1]) was 1.55 nM, the Emax (hGIPR; [2]) was 82.8 ± 3.36% and the Emax (hGIPR; [5]) was 94.5 ± 0.611%. The EC50 (hGIPR; [3]) was 0.024 nM, the EC50 (hGCGR; [1]) was > 9950 nM and the EC50 (hGCGR; [3]) was > 9950 nM. For the same molecule, the EC50 (hGLP-1R; [1]) was 28.9 nM, the Emax (hGLP-1R; [4]) was 112 ± 8.5% and the Emax (hGLP-1R; [6]) was 98.9 ± 4.64%. It also gave an EC50 (hGLP-1R; [3]) of 0.303 nM.
